For the data set, the system named is Wistar rats. Put plainly: Open field test, hypokinetic (sedative) or hyperkinetic action (analgesia examples). As to the method: (§1) To evaluate the hypokinetic (sedative) or hyperkinetic action effects of tested drugs an “open field” (OF) test was applied. In the OF test, the locomotive activity of rats is determined. Animals were placed in the center of square of the illuminated field (1 meter×1 meter) for 3 minutes and the mobility time was recorded in seconds (horizontal activity). […] To quantify the locomotive activity for each dose of test drug(s) an average horizontal activity was calculated.
as §1
To evaluate the hypokinetic (sedative) effects of drugs, “open field” (OF) test was applied. In the OF test, the locomotive activity of rats is determined. Animals were placed in the center of square of the illuminated field (1 meter×1 meter) for 3 minutes and the mobility time was recorded in seconds (horizontal activity). […] To quantify the locomotive activity for each dose of test drug(s), an average horizontal activity was calculated.
Tail-Flick and Open Field Tests were Conducted as Detailed Above.
as §1

Molecules are shown by their SMILES.

Take `CC12CC3CC(C)(C1)CC(N)(C3)C2` [Memantine, memantine]: the Sedation (I.M., doses by row as E3) is listed as 0 % of Rats. This compound also gave a Hyperkinesia or sedation (unmarked cells, doses as E6) of 0 % rats. The compound further yielded a Hyperkinesia or sedataion (unmarked cells, doses as E12) of 0 % rats. Besides, the Hyperkinesia is, setting by setting: (unmarked cells, doses as E48) 0 % rats; (unmarked cells, doses as E54) 0 % rats.

Values taken from US20200188388A1, “METHODS AND COMPOSITIONS FOR PO[…] DRUGS AND REDUCING THEIR SIDE EFFECTS” (RVX THERAPEUTICS LTD., priority 2016, published 2020).
